The results in this text go back to patent publication US20240239861A1, “GLUCAGON-RECEPTOR SELECTIVE POLYPEPTIDES AND METHODS OF USE THEREOF” (i2O Therapeutics, Inc., priority 2016, published 2024).

The target in the experiment is human GLP-1R (Homo sapiens, UniProt P43220). In words: Peptide-receptor mediated cAMP accumulation (LANCE Ultra cAMP) in CHO-K1 cells transfected with human GLP-1R. Particulars: hGLP1 pEC50 (cAMP mean (n = 3): 11 point curve starting at 1 nM, Table 3). The experiment is classed as cell-based. (Cyclic AMP is a second messenger, typically raised through Gs and lowered through Gi signalling.)
Sequence of human GLP-1R (P43220 24-463): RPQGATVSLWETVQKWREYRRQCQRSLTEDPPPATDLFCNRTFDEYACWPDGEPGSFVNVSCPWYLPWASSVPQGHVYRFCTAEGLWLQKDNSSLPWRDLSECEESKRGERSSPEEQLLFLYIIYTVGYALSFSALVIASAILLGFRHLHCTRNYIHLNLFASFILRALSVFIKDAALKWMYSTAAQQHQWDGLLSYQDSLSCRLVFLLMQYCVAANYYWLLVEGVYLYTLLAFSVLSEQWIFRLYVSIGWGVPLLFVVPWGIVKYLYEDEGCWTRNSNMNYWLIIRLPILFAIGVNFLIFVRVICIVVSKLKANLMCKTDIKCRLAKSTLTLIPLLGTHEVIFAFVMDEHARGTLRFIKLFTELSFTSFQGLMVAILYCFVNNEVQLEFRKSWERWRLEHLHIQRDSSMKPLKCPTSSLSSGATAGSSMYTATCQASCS

Where a SMILES comes first, the peptide text is derived from it. [ ]: non-standard residue; d: D form. Aib = CC(C)(N)C(=O)O

Turning to `CC(C)C[C@H](NC(=O)[C@H](Cc1c[nH]c2ccccc12)NC(=O)[C@H](CCCCN)NC(=O)[C@H](CO)NC(=O)[C@H](Cc1ccc(O)cc1)NC(=O)[C@H](CC(=O)O)NC(=O)[C@H](CO)NC(=O)[C@@H](NC(=O)[C@H](Cc1ccccc1)NC(=O)[C@@H](NC(=O)CNC(=O)[C@H](Cc1c[nH]cn1)NC(=O)[C@H](CO)NC(=O)[C@@H](N)Cc1ccc(O)cc1)[C@@H](C)O)[C@@H](C)O)C(=O)N[C@@H](CC(=O)O)C(=O)NC(C)(C)C(=O)N[C@@H](C)C(=O)N[C@@H](CCCNC(=N)N)C(=O)N[C@@H](C)C(=O)N[C@@H](CCC(N)=O)C(=O)N[C@@H](CCC(=O)O)C(=O)N[C@@H](Cc1ccccc1)C(=O)N[C@H](C(=O)NC(C)(C)C(=O)N[C@@H](Cc1c[nH]c2ccccc12)C(=O)N[C@@H](CC(C)C)C(=O)N[C@@H](CCC(=O)O)C(=O)N[C@@H](CC(=O)O)C(=O)N[C@@H](CCC(=O)O)C(=O)N1CCC[C@H]1C(=O)N[C@@H](CO)C(=O)N[C@@H](CO)C(=O)NCC(=O)N[C@@H](C)C(=O)N1CCC[C@H]1C(=O)N1CCC[C@H]1C(=O)N1CCC[C@H]1C(=O)N[C@@H](CO)C(=O)O)C(C)C` [Compound A18] (H-YSHGTFTSDYSKWLD[Aib]ARAQEFV[Aib]WLEDEPSSGAPPPS-OH; N-terminus assumed), the half-maximal effective concentration (EC50) was more than 1 nM.

In the case of `CC(C)C[C@H](NC(=O)[C@H](Cc1ccc(O)cc1)NC(=O)[C@H](CCCCN)NC(=O)[C@H](CO)NC(=O)[C@H](Cc1ccc(O)cc1)NC(=O)[C@H](CC(=O)O)NC(=O)[C@H](CO)NC(=O)[C@@H](NC(=O)[C@H](Cc1ccccc1)NC(=O)[C@@H](NC(=O)CNC(=O)[C@H](Cc1c[nH]cn1)NC(=O)[C@H](CO)NC(=O)[C@@H](N)Cc1ccc(O)cc1)[C@@H](C)O)[C@@H](C)O)C(=O)N[C@@H](CC(=O)O)C(=O)NC(C)(C)C(=O)N[C@@H](CCCCN)C(=O)N[C@@H](CCCNC(=N)N)C(=O)N[C@@H](C)C(=O)N[C@@H](CCC(N)=O)C(=O)N[C@@H](CCC(=O)O)C(=O)N[C@@H](Cc1ccccc1)C(=O)N[C@H](C(=O)NC(C)(C)C(=O)N[C@@H](Cc1c[nH]c2ccccc12)C(=O)N[C@@H](CC(C)C)C(=O)N[C@@H](CCC(=O)O)C(=O)N[C@@H](CC(=O)O)C(=O)N[C@@H](CCC(=O)O)C(=O)NCC(=O)N[C@@H](C)C(=O)N1CCC[C@H]1C(=O)N1CCC[C@H]1C(=O)N1CCC[C@H]1C(=O)N[C@@H](CO)C(=O)O)C(C)C` [Compound A12] (H-YSHGTFTSDYSKYLD[Aib]KRAQEFV[Aib]WLEDEGAPPPS-OH; N-terminus assumed), the EC50 was more than 1 nM.

Take `CC(C)C[C@H](NC(=O)[C@H](Cc1ccc(O)cc1)NC(=O)[C@H](CCCCN)NC(=O)[C@H](CO)NC(=O)[C@H](Cc1ccc(O)cc1)NC(=O)[C@H](CC(=O)O)NC(=O)[C@H](CO)NC(=O)[C@@H](NC(=O)[C@H](Cc1ccccc1)NC(=O)[C@@H](NC(=O)CNC(=O)[C@H](Cc1c[nH]cn1)NC(=O)[C@H](CO)NC(=O)[C@@H](N)Cc1ccc(O)cc1)[C@@H](C)O)[C@@H](C)O)C(=O)N[C@@H](CC(=O)O)C(=O)NC(C)(C)C(=O)N[C@@H](CCCCN)C(=O)N[C@@H](CCCNC(=N)N)C(=O)N[C@@H](C)C(=O)N[C@@H](CCC(N)=O)C(=O)N[C@@H](CCC(=O)O)C(=O)N[C@@H](Cc1ccccc1)C(=O)N[C@H](C(=O)NC(C)(C)C(=O)N[C@@H](Cc1c[nH]c2ccccc12)C(=O)N[C@@H](CC(C)C)C(=O)N[C@@H](CCC(=O)O)C(=O)N[C@@H](CC(=O)O)C(=O)N[C@@H](CCC(=O)O)C(=O)N1CCC[C@H]1C(=O)N[C@@H](CO)C(=O)N[C@@H](CO)C(=O)N[C@@H](CCCCN)C(=O)N[C@@H](CO)C(=O)N1CCC[C@H]1C(=O)N1CCC[C@H]1C(=O)N1CCC[C@H]1C(=O)N[C@@H](CO)C(=O)O)C(C)C` [Compound A55] (H-YSHGTFTSDYSKYLD[Aib]KRAQEFV[Aib]WLEDEPSSKSPPPS-OH; N-terminus assumed): the EC50 was more than 1 nM.

As for `CC(C)C[C@H](NC(=O)[C@H](Cc1ccc(O)cc1)NC(=O)[C@H](CCCCN)NC(=O)[C@H](CO)NC(=O)[C@H](Cc1ccc(O)cc1)NC(=O)[C@H](CC(=O)O)NC(=O)[C@H](CO)NC(=O)[C@@H](NC(=O)[C@H](Cc1ccccc1)NC(=O)[C@@H](NC(=O)CNC(=O)[C@H](Cc1c[nH]cn1)NC(=O)[C@H](CO)NC(=O)[C@@H](N)Cc1ccc(O)cc1)[C@@H](C)O)[C@@H](C)O)C(=O)N[C@@H](CC(=O)O)C(=O)NC(C)(C)C(=O)N[C@@H](CCCCN)C(=O)N[C@@H](CCCNC(=N)N)C(=O)N[C@@H](C)C(=O)N[C@@H](CCC(N)=O)C(=O)N[C@@H](CCC(=O)O)C(=O)N[C@@H](Cc1ccccc1)C(=O)N[C@H](C(=O)NC(C)(C)C(=O)N[C@@H](Cc1c[nH]c2ccccc12)C(=O)N[C@@H](CC(C)C)C(=O)N[C@@H](CCC(=O)O)C(=O)N[C@@H](CC(=O)O)C(=O)N[C@@H](CCC(=O)O)C(=O)N[C@@H](CO)C(=O)NCC(=O)N[C@@H](C)C(=O)N1CCC[C@H]1C(=O)N1CCC[C@H]1C(=O)N1CCC[C@H]1C(=O)N[C@@H](CO)C(=O)O)C(C)C` [Compound A13] (H-YSHGTFTSDYSKYLD[Aib]KRAQEFV[Aib]WLEDESGAPPPS-OH; N-terminus assumed), the EC50 was more than 1 nM.

Molecule `CC(C)C[C@H](NC(=O)[C@H](Cc1ccc(O)cc1)NC(=O)[C@H](CCCCN)NC(=O)[C@H](CO)NC(=O)[C@H](Cc1ccc(O)cc1)NC(=O)[C@H](CC(=O)O)NC(=O)[C@H](CO)NC(=O)[C@@H](NC(=O)[C@H](Cc1ccccc1)NC(=O)[C@@H](NC(=O)CNC(=O)[C@H](Cc1c[nH]cn1)NC(=O)[C@H](CO)NC(=O)[C@@H](N)Cc1ccc(O)cc1)[C@@H](C)O)[C@@H](C)O)C(=O)N[C@@H](CC(=O)O)C(=O)N[C@@H](C)C(=O)N[C@@H](C)C(=O)N[C@@H](CCCNC(=N)N)C(=O)N[C@@H](C)C(=O)N[C@@H](CCC(N)=O)C(=O)N[C@@H](CCC(=O)O)C(=O)N[C@@H](Cc1ccccc1)C(=O)N[C@H](C(=O)N[C@@H](CCCCN)C(=O)N[C@@H](Cc1c[nH]c2ccccc12)C(=O)N[C@@H](CC(C)C)C(=O)N[C@@H](CCC(=O)O)C(=O)N[C@@H](CC(=O)O)C(=O)N[C@@H](CCC(=O)O)C(=O)N1CCC[C@H]1C(=O)N[C@@H](CCCCN)C(=O)N[C@@H](CO)C(=O)N[C@@H](CCCCN)C(=O)N[C@@H](CO)C(=O)N1CCC[C@H]1C(=O)N1CCC[C@H]1C(=O)N1CCC[C@H]1C(=O)N[C@@H](CO)C(N)=O)C(C)C` [Compound A80] (H-YSHGTFTSDYSKYLDAARAQEFVKWLEDEPKSKSPPPS-NH2; N-terminus assumed) came in with an EC50 of more than 1 nM.

In turn, `CC(C)C[C@H](NC(=O)[C@H](Cc1ccc(O)cc1)NC(=O)[C@H](CCCCN)NC(=O)[C@H](CO)NC(=O)[C@H](Cc1ccc(O)cc1)NC(=O)[C@H](CC(=O)O)NC(=O)[C@H](CO)NC(=O)[C@@H](NC(=O)[C@H](Cc1ccccc1)NC(=O)[C@@H](NC(=O)CNC(=O)[C@H](Cc1c[nH]cn1)NC(=O)[C@H](CO)NC(=O)[C@@H](N)Cc1ccc(O)cc1)[C@@H](C)O)[C@@H](C)O)C(=O)N[C@@H](CC(=O)O)C(=O)NC(C)(C)C(=O)N[C@@H](CCCCN)C(=O)N[C@@H](CCCNC(=N)N)C(=O)N[C@@H](C)C(=O)N[C@@H](CCC(N)=O)C(=O)N[C@@H](CCC(=O)O)C(=O)N[C@@H](Cc1ccccc1)C(=O)N[C@H](C(=O)NC(C)(C)C(=O)N[C@@H](Cc1c[nH]c2ccccc12)C(=O)N[C@@H](CC(C)C)C(=O)N[C@@H](CCC(=O)O)C(=O)N[C@@H](CC(=O)O)C(=O)N[C@@H](CCC(=O)O)C(=O)N1CCC[C@H]1C(=O)N[C@@H](CCCNC(=N)N)C(=O)N[C@@H](CC(N)=O)C(=O)N[C@@H](CCCCN)C(=O)N[C@@H](CC(N)=O)C(=O)N[C@@H](CC(N)=O)C(=O)N1CCC[C@H]1C(=O)N1CCC[C@H]1C(=O)N[C@@H](CO)C(=O)O)C(C)C` [Compound A49] (H-YSHGTFTSDYSKYLD[Aib]KRAQEFV[Aib]WLEDEPRNKNNPPS-OH; N-terminus assumed) gave an EC50 of more than 1 nM.

Consider `CC(C)C[C@H](NC(=O)[C@H](Cc1ccc(O)cc1)NC(=O)[C@H](CCCCN)NC(=O)[C@H](CO)NC(=O)[C@H](Cc1ccc(O)cc1)NC(=O)[C@H](CC(=O)O)NC(=O)[C@H](CO)NC(=O)[C@@H](NC(=O)[C@H](Cc1ccccc1)NC(=O)[C@@H](NC(=O)CNC(=O)[C@H](Cc1c[nH]cn1)NC(=O)[C@H](CO)NC(=O)[C@@H](N)Cc1ccc(O)cc1)[C@@H](C)O)[C@@H](C)O)C(=O)N[C@@H](CC(=O)O)C(=O)NC(C)(C)C(=O)N[C@@H](CCCCN)C(=O)N[C@@H](CCCNC(=N)N)C(=O)N[C@@H](C)C(=O)N[C@@H](CCC(N)=O)C(=O)N[C@@H](CCC(=O)O)C(=O)N[C@@H](Cc1ccccc1)C(=O)N[C@H](C(=O)NC(C)(C)C(=O)N[C@@H](Cc1c[nH]c2ccccc12)C(=O)N[C@@H](CC(C)C)C(=O)N[C@@H](CCC(=O)O)C(=O)N[C@@H](CCC(=O)O)C(=O)N[C@@H](CCC(=O)O)C(=O)N1CCC[C@H]1C(=O)N[C@@H](CO)C(=O)N[C@@H](CO)C(=O)NCC(=O)N[C@@H](C)C(=O)N1CCC[C@H]1C(=O)N1CCC[C@H]1C(=O)N1CCC[C@H]1C(=O)N[C@@H](CO)C(=O)O)C(C)C` [Compound A9] (H-YSHGTFTSDYSKYLD[Aib]KRAQEFV[Aib]WLEEEPSSGAPPPS-OH; N-terminus assumed), for which the EC50 is more than 1 nM.

`CC(C)C[C@H](NC(=O)[C@H](Cc1ccc(O)cc1)NC(=O)[C@H](CCCCN)NC(=O)[C@H](CO)NC(=O)[C@H](Cc1ccc(O)cc1)NC(=O)[C@H](CC(=O)O)NC(=O)[C@H](CO)NC(=O)[C@@H](NC(=O)[C@H](Cc1ccccc1)NC(=O)[C@@H](NC(=O)CNC(=O)[C@H](Cc1c[nH]cn1)NC(=O)[C@H](CO)NC(=O)[C@@H](N)Cc1ccc(O)cc1)[C@@H](C)O)[C@@H](C)O)C(=O)N[C@@H](CC(=O)O)C(=O)NC(C)(C)C(=O)N[C@@H](CCCCN)C(=O)N[C@@H](C)C(=O)N[C@@H](C)C(=O)N[C@@H](CCC(N)=O)C(=O)N[C@@H](CCC(=O)O)C(=O)N[C@@H](Cc1ccccc1)C(=O)N[C@H](C(=O)NC(C)(C)C(=O)N[C@@H](Cc1c[nH]c2ccccc12)C(=O)N[C@@H](CC(C)C)C(=O)N[C@@H](CCC(=O)O)C(=O)N[C@@H](CC(=O)O)C(=O)N[C@@H](CCC(=O)O)C(=O)N1CCC[C@H]1C(=O)N[C@@H](CO)C(=O)N[C@@H](CO)C(=O)NCC(=O)N[C@@H](CCCCN)C(=O)N1CCC[C@H]1C(=O)N1CCC[C@H]1C(=O)N1CCC[C@H]1C(=O)N[C@@H](CO)C(=O)O)C(C)C` [Compound A90] (H-YSHGTFTSDYSKYLD[Aib]KAAQEFV[Aib]WLEDEPSSGKPPPS-OH; N-terminus assumed) registered an EC50 of more than 1 nM.

As a reminder, the EC50 is the midpoint of the concentration-response curve. A higher EC50 goes with lower potency in that assay.
